According to patent publication US20260020586A1, “METHOD OF PREPARING GRANULAR FEED ADDITIVE” (CJ CHEILJEDANG CORPORATION, priority 2020, published 2026):

Experiments:
pH of granules = format: physicochemical; conditions: granules of Table 8 (bubbling tower, different carbon dioxide input times)
[1] = Degree of agglomeration visually evaluated after storage; format: physicochemical; conditions: visual score, good: 0 to poor: 5; after 1 week at 40° C. and 60% relative humidity

Cl.NCCCC[C@H](N)C(=O)O [Comparative Example 7, L-Lysine hydrochloride]
pH (pH of granules): 5.8 | Degree of agglomeration (good: 0-poor: 5) [1]: 1
